Non-standard residues stand in square brackets, D forms with d. Aib = CC(C)(N)C(=O)O
Experiments:
primary EOC cells = test: Adhesion of primary EOC cells onto matrix proteins monitored in real time (xCELLigence); type: cell-based, human
Method: This assay was performed using E-16-well plates and the xCELLigence Real Time Cell Analysis technology. Bottom wells were coated with serum-free medium, 5 μg mL Vn, 5 μg mL Fn, 5 μg mL Lm or 15 μg mL Coll diluted in serum-free medium prior to seeding cells (1 × 10^4 cells/well) suspended in serum-free medium. Cells that adhere to the bottom of plates cause impedance changes which are proportional to the number of cells. The impedance value of each well was automatically monitored in real-time for at least 2 h and expressed as a cell index value. The experiments were performed three times in quadruplicate.
Fig. 6 RI-3 prevents EOC cell adhesion and subsequent invasion of mesothelium. a Adhesion of primary EOC cells on E-plates coated with 1% BSA (CTRL), 5 μg mL Vn, 5 μg mL Fn, 5 μg mL Lm or 15 μg mL Coll, with/without 10 nM RI-3, monitored in real time for 5 h by the xCELLigence system. Data represent mean ± SD from a quadruplicate experiment representative of 3 replicates. b-c Adhesion of EOC cells onto Vn in the absence or presence of 10 nM RI-3, monitored in real time for 3 h by the xCELLigence system. […] At the indicated times, cell associated fluorescence was assessed by a fluorescence plate reader. […] Cells invasion was monitored in real-time as changes in Cell Index due to breaking of the monolayer integrity (e). […]

SKOV-3 cells [1] = test: Adhesion of SKOV-3 cells onto extracellular matrix proteins (24-well plates, cell counting); type: cell-based, Human
Method: (§1) Adhesion assays were performed using 24 multi-well plates coated with 1% BSA, 5 μg mL vitronectin (Vn), 5 μg mL fibronectin (Fn), 5 μg mL laminin (Lm) or 15 μg mL collagen (Coll) diluted in serum-free medium. Sub-confluent cells were harvested by a mild trypsinization, incubated with 10% FBS / DMEM for 1 h at 37 °C, 5% CO2, acid treated with a buffer containing 50 mM glycin-HC1, 0.1 M NaCl, pH 3 for 4 min at 22 °C, to remove receptor-bound ligands, and counted. Viable cells (2 × 10^5 cells per well) were plated in serum-free medium, in the absence or presence of 2 μg/mL R3 mAb recognizing the DI uPAR domain, 2 μg/mL399 anti-uPAR (American Diagnostica), 2 μg/mL anti-uPAR84-95 (PRIMM), 2 μg/mL anti-α-tubulin (Cell Signaling) Abs or 10 nM RI-3, and allowed to adhere for 2 h at 37 °C, 5% CO2. […] At the end of the assay, adherent cells were removed with 0.05% trypsin, and counted. The number of adherent cells was expressed as a percentage of the basal cell adhesion (CTRL). The experiments were performed at least three times in triplicate.

EOC cells = test: EOC cell adhesion to and crossing of mesothelial cell monolayers (summary statement); type: cell-based, human; settings: EOC cells exposed to RI-3 or desensitized with an excess of SRSRY
Method: HPMCs (1 × 10^5 cells/well) suspended in growth medium, were seeded in 24-well plates and allowed to adhere for about 20 h until they form a confluent monolayer, prior to seeding GFP-tagged EOC cells suspended in growth medium plus diluents or 10 nM RI-3. At the indicated times, plates were accurately washed with PBS and cell-associated fluorescence was assessed by a fluorescence plate reader a fluorescence plate reader (Victor 3, Perkin Elmer), using 485 nm excitation and 535 nm emission filters. The experiments were performed three times in triplicate.
(§2) HPMCs (5 × 10^3 cells/well) suspended in growth medium, were seeded in E-16-well plates and allow to adhere for 18–20 h until they form a confluent monolayer, prior to seeding EOC cells (2 × 10^4 cells/well) in growth medium plus/minus 10 nM RI-3. When HPMCs are challenged with invading cells, there is a drop in electrical resistance within 2–4 h which is monitored in real-time as the Cell Index changes due to the rupture of mesothelium. The experiments were performed three times in quadruplicate.

SKOV-3 cells [2] = test: HPMC invasion by SKOV-3 cells monitored in real time; type: cell-based, Human; settings: 10 nM RI-3; xCELLigence cell index, slopes 20–24 h; quadruplicate representative of 3 replicates
Method: as §2

[3] = ref [36]; cited from earlier work
From the text: On the other hand, despite a variety of natural and synthetic compounds that interfere with FPR1-dependent pathways antagonizing FPR1functions have been described, the majority had off-target effects, discouraging their clinical development.

A2780 cells = test: Adhesion of A2780 cells onto extracellular matrix proteins; type: cell-based, Human; settings: A2780 cells lacking uPAR and FPR1, 10 nM RI-3; BSA, Vn, Fn, Lm or Coll; three independent experiments
Method: as §1, with “The experiments were performed at least three times in triplicate.” left out
Supplementary file 13046_2019_1465_MOESM1_ESM.zip: Additional file 1: Figure S1. […] The number of adherent cells was expressed as a percentage of CTRL. […] Then, A2780 cells suspended in growth medium plus/minus 10 nM RI-3 were seeded onto the mesothelial cell monolayer and invasion of mesothelium by A2780 cells was monitored in real-time as changes in Cell Index due to breaking of the monolayer integrity. […]

In the case of “Ac-[dY][dR][Aib][dR]-NH2 [RI-3, retro-inverso peptide, uPAR/FPR1 antagonist]”, the “reduction of primary EOC cell adhesion onto Vn” value (primary EOC cells; 10 nM RI-3, 5 μg mL Vn, real time, slopes 10–120 min, quadruplicate representative of 3 replicates) is reported as 55%, the “matrix selectivity of adhesion reduction, primary EOC cells” value (primary EOC cells; 10 nM RI-3, Vn vs Fn, Coll, Lm, real time 5 h) is reported as “exclusively reduced cell adhesion onto Vn” and the “basal cell adhesion and adhesion to Coll-, Fn- and Lm-coated plates” value (SKOV-3 cells [1]; SKOV-3, 10 nM RI-3, 2 h, BSA (basal), collagen, fibronectin, laminin, three independent experiments) is reported as “neither affected basal cell adhesion, nor cell adhesion to Coll- Fn- and Lm-coated plates”. For the same substance, the “extent of cell adhesion onto Vn with RI-3” value (SKOV-3 cells [1]; SKOV-3, 10 nM RI-3, Fig. 2d (2 h, cell counting) and Fig. 2e (real time 2 h)) was “dramatically reduced the extent of cell adhesion onto Vn”, the “ability to cross mesothelial cell monolayers (abstract)” value (EOC cells) was “losing the ability to cross them” and the “capability of SKOV-3 cells to disrupt mesothelial cell monolayer” value (SKOV-3 cells [2]) was “abrogated the capability of SKOV-3 cells to disrupt mesothelial cell monolayer”. For the same substance, the cell proliferation [3] was “does not affect cell proliferation” and the A2780 cell adhesion (A2780 cells) was “ineffective”.

Reference: article PMC6839174, “Targeting the Formyl Peptide Receptor type 1 to prevent the adhesion of ovarian cancer cells onto mesothelium and subsequent invasion” (Journal of Experimental & Clinical Cancer Research : CR, 2019)
